How the values were obtained:
hα2A receptor = biological target: T1, hα2A receptor (Homo sapiens, UniProt P08913); experiment: Radioligand binding experiment for α2A-adrenoceptor ([3H]raulwolscine, CHO cell membranes); conditions: [3H]raulwolscine binding; for IC50: read-out: h-α2A pIC50 (converted)
T1 construct: expressed in transfected cells; host or cells: CHO cells, stably transfected; membrane preparation
T1 sequence (P08913 1-465): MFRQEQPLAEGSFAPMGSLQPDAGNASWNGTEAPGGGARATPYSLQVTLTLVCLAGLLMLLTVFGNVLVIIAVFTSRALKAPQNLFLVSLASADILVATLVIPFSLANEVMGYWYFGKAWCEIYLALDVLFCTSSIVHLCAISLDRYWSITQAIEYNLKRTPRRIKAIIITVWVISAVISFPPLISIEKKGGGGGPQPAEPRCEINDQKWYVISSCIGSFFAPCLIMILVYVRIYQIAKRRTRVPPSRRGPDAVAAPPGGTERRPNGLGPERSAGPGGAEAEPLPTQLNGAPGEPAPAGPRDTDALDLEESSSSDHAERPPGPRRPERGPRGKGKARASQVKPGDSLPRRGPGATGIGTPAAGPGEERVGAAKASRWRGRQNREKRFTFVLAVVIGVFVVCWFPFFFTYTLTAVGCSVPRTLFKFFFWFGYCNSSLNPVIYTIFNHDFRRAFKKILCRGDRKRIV
Experimental: (§1) The interaction of a compound of Formula (I) with α2-adrenoceptor receptors was assessed in in vitro radioligand binding experiments. In general, a low concentration of a radioligand with a high binding affinity for a particular receptor or transporter is incubated with a sample of a tissue preparation enriched in a particular receptor or transporter or with a preparation of cells expressing cloned human receptors in a buffered medium. During the incubation, the radioligand binds to the receptor or transporter. When equilibrium of binding is reached, the receptor bound radioactivity is separated from the non-bound radioactivity, and the receptor- or transporter-bound activity is counted. The interaction of the test compounds with the receptor is assessed in competition binding experiments. Various concentrations of the test compound are added to the incubation mixture containing the receptor- or transporter preparation and the radioligand. The test compound in proportion to its binding affinity and its concentration inhibits binding of the radioligand. The radioligand used for hα2A and hα2C receptor binding was [^3H]-raulwolscine.
(§2) CHO cells, stabile transfected with human adrenergic-α2A and α2C receptor cDNA, were cultured in Dulbecco's Modified Eagle's Medium (DMEM)/Nutrient mixture Ham's F12 (ratio 1:1)(Gibco, Gent-Belgium) supplemented with 10% heat inactivated fetal calf serum (Life Technologies, Merelbeke-Belgium) and antibiotics (100 IU/ml penicillin G, 100 μg/ml streptomycin sulphate, 110 μg/ml pyruvic acid and 100 μg/ml L-glutamine). One day before collection, cells were induced with 5 mM sodiumbutyrate. Upon 80-90% of confluence, cells were scraped in phosphate buffered saline without Ca^2+ and Mg^2+ and collected by centrifugation at 1500×g for 10 minutes. The cells were homogenised in Tris-HCl 50 mM using an Ultraturrax homogenizer and centrifuged for 10 minutes at 23,500×g. The pellet was washed once by resuspension and rehomogenization and the final pellet was resuspended in Tris-HCl, divided in 1 ml aliquots and stored at −70° C.
(§3) Membranes were thawed and re-homogenized in incubation buffer (glycylglycine 25 mM, pH 8.0). […] Filters were rinsed extensively with ice-cold rinsing buffer (Tris-HCl 50 mM pH 7.4). Filter-bound radioactivity was determined by scintillation counting in a Topcount (Packard, Meriden, Conn.) and results were expressed as counts per minute (cpm). Non-specific binding was determined in the presence of 1 μM oxymetazoline for the hα2A receptor and 1 μM spiroxatrine for hα2C receptor.
(§4) Data from assays in the presence of compound were calculated as a percentage of total binding measured in the absence of test compound. Inhibition curves, plotting percent of total binding versus the log value of the concentration of the test compound, were automatically generated, and sigmoidal inhibition curves were fitted using non-linear regression. The pIC50 values of test compounds were derived from individual curves.

5HT-Transporter = biological target: T2, 5HT-Transporter (Homo sapiens, UniProt P31645); experiment: Binding experiment for the 5HT-transporter ([3H]paroxetine, human platelet membranes); conditions: [3H]paroxetine 0.5 nM; for IC50: read-out: h-5HTT pIC50 (converted)
T2 construct: Human platelet membranes (Oceanix Biosciences Corporation, Hanover, Md., USA) were thawed; tissue Oceanix Biosciences Corporation, Hanover, Md., USA; host or cells: human platelet membranes
T2 sequence (P31645 whole entry): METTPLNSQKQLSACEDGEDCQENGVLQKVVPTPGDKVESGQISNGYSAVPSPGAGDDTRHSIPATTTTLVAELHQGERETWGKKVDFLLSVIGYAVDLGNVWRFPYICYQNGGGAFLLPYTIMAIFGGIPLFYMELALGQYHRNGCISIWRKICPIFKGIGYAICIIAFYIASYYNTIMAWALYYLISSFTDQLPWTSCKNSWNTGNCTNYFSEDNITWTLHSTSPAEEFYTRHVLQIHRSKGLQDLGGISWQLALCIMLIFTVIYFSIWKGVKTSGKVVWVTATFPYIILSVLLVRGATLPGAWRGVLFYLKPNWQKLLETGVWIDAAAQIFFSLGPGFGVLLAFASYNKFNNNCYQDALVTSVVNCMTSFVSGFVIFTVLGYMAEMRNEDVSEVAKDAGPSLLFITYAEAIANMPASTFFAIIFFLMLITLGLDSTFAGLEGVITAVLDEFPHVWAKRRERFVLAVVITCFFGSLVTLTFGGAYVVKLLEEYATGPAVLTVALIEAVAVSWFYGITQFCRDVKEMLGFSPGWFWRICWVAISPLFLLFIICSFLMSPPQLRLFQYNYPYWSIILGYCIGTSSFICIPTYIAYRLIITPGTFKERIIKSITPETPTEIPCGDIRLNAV
Experimental: as §1
Human platelet membranes (Oceanix Biosciences Corporation, Hanover, Md., USA) were thawed, diluted in buffer (Tris-HCl 50 mM, 120 mM NaCl and 5 mM KCl) and quickly (max 3 s) homogenised with an Ultraturrax homogenizer. […] Incubation was stopped by rapid filtration of the incubation mixture over GF/B filters, pre-wetted with 0.1% polyethyleneamine, using a Filtermate196 harvester (Packard, Meriden, Conn.). Filters were rinsed extensively with ice-cold buffer and radioactivity on the filters was counted in a Topcount liquid scintillation counter (Packard, Meriden, Conn.). Data were expressed as cpm. Imipramine (at 1 μM final concentration) was used to determine the non-specific binding.
as §4

hα2C receptor = biological target: T3, hα2C receptor (Homo sapiens, UniProt P18825); experiment: Radioligand binding experiment for α2C-adrenoceptor ([3H]raulwolscine, CHO cell membranes); conditions: [3H]raulwolscine binding; for IC50: read-out: h-α2C pIC50 (converted)
T3 construct: expressed in transfected cells; host or cells: CHO cells, stably transfected; membrane preparation
T3 sequence (P18825 1-462): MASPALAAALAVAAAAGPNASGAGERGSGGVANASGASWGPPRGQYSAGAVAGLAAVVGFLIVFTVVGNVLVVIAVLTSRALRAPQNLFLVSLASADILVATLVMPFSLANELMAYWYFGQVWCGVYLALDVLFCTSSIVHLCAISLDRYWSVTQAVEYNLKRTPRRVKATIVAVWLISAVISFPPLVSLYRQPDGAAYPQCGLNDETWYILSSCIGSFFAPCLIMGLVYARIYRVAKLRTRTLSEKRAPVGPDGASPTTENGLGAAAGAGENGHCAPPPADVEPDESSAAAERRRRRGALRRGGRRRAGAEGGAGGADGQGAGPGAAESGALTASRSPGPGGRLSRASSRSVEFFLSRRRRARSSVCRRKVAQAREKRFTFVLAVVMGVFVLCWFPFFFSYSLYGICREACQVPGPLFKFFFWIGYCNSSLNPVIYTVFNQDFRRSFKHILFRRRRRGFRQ
Experimental: as §1, §2, §3, §4

SMILES	IC50 (hα2A receptor) [nM]	IC50 (5HT-Transporter) [nM]	IC50 (hα2C receptor) [nM]	h-α2A pIC50 (hα2A receptor)	h-5HTT pIC50 (5HT-Transporter)	h-α2C pIC50 (hα2C receptor)
C/C(=C\c1ccccc1)CN1CCN(c2nccn(CCCc3ccccc3)c2=O)CC1 [12-2]	200	1260	63.1	–	–	–
C/C(=C\c1ccccc1)CN1CCC(Nc2nccn(CC(=O)N3CCC(Cc4ccccc4)CC3)c2=O)CC1 [2-13]	100	251	5.01	–	–	–
C/C(=C\c1ccccc1)CN1CCC(N(C)c2nccn(CCCO)c2=O)CC1 [15-4]	63.1	2510	39.8	–	–	–
CCOC(=O)N1CCN(Cc2ccc(-n3ccnc(NC4CCN(C/C(C)=C/c5ccccc5)CC4)c3=O)cc2)CC1 [2-37]	398	6310	31.6	–	–	–
C/C(=C\c1ccccc1)CN1CCN(c2nccn(CCOCc3ccccc3)c2=O)CC1 [10-3]	398	1260	79.4	–	–	–
CCOC(=O)N1CCC(NCc2cccc(-n3ccnc(NC4CCN(C/C(C)=C/c5ccccc5)CC4)c3=O)c2)CC1 [1-127]	–	–	–	7.3	5.5	8.0
COc1ccc(-c2nnc(Cn3ccnc(N4CCN(C/C(C)=C/c5ccccc5)CC4)c3=O)o2)cc1 [13-4]	63.1	398	63.1	–	–	–
CCOC(=O)CCCCn1ccnc(NC2CCN(C/C(C)=C/c3ccccc3)CC2)c1=O [3-17]	126	794	15.8	–	–	–
C/C(=C\c1ccccc1)CN1CCC(Nc2nccn(Cc3ccc(C(F)(F)F)cc3)c2=O)CC1 [5-23]	200	794	79.4	–	–	–
C/C(=C\c1ccccc1)CN1CCC(Nc2nccn(CC(=O)NCCN3CCOCC3)c2=O)CC1 [1-148]	251	1260	7.94	–	–	–
C/C(=C\c1ccccc1)CN1CCN(c2nccn(Cc3ccc(CN)cc3)c2=O)CC1 [8-1]	39.8	1000	12.6	–	–	–
C/C(=C\c1ccccc1)CN1CCC(Nc2nccn(CCCNC(=O)CC3CCCC3)c2=O)CC1 [1-33]	200	794	12.6	–	–	–
C/C(=C\c1ccccc1)CN1CCC(Nc2nccn(CC(=O)N(CCN3CCCC3)Cc3ccccc3)c2=O)CC1 [1-135]	12.6	794	0.794	–	–	–
CCCCN(Cc1ccccc1)C(=O)Cn1ccnc(NC2CCN(C/C(C)=C/c3ccccc3)CC2)c1=O [1-66]	79.4	794	12.6	–	–	–
C/C(=C\c1ccccc1)CN1CCC(Nc2nccn(CC(=O)N3CCOCC3)c2=O)CC1 [2-41]	126	3980	12.6	–	–	–
C/C(=C\c1ccccc1)CN1CCC(Nc2nccn(CC3CCCCO3)c2=O)CC1 (stereo not shown) [6-1]	126	1000	20	–	–	–
C/C(=C\c1ccccc1)CN1CCC(Nc2nccn(CCN3CCCCC3)c2=O)CC1 [2-4]	–	2510	3.16	–	–	–
CN(C)CCCn1ccnc(NC2CCN(C/C=C/c3ccccc3)CC2)c1=O [16-2]	501	–	63.1	–	–	–
C/C(=C\c1ccccc1)CN1CCC(Nc2nccn(CCCN)c2=O)CC1 [1-2]	39.8	–	–	–	–	–
C/C(=C\c1ccccc1)CN1CCN(c2nccn(CCCN3CCCC3=O)c2=O)CC1 [9-1]	2000	–	251	–	–	–
CC(=O)Cn1ccnc(NC2CCN(C/C(C)=C/c3ccccc3)CC2)c1=O [7-7]	50.1	–	12.6	–	–	–
COCCn1ccnc(NC2CCN(C/C(C)=C/c3ccccc3)CC2)c1=O [3-5]	316	–	39.8	–	–	–
C/C(=C\c1ccccc1)CN1CCC(Nc2ncc[nH]c2=O)CC1 [7-1]	100	–	31.6	–	–	–
C/C(=C\c1ccccc1)CN1CCC(Nc2nccn(CCN3CCOCC3)c2=O)CC1 [2-40]	–	–	25.1	–	–	–

The next lines start with the values.

IC50 (hα2A receptor) [nM]	IC50 (5HT-Transporter) [nM]	IC50 (hα2C receptor) [nM]	h-α2A pIC50 (hα2A receptor)	h-5HTT pIC50 (5HT-Transporter)	h-α2C pIC50 (hα2C receptor)	SMILES
31.6	158	6.31	–	–	–	C/C(=C\c1ccccc1)CN1CCC(Nc2nccn(CN3C(=O)c4ccccc4C3=O)c2=O)CC1 [2-48]
15.8	794	3.16	–	–	–	C/C(=C\c1ccccc1)CN1CCC(Nc2nccn(Cc3ccc(CN)cc3)c2=O)CC1 [1-7]
–	–	–	6.7	7.1	8.3	C/C(=C\c1ccccc1)CN1CCC(Nc2nccn(-c3ccc(CNC(=O)c4ccc(F)cc4)cc3)c2=O)CC1 [1-78]
12.6	–	3.16	–	–	–	C/C(=C\c1ccccc1)CN1CCC(Nc2nccn(-c3ccccn3)c2=O)CC1 [6-10]
5.01	1580	1	–	–	–	COCCN(C)Cc1cccc(-n2ccnc(NC3CCN(C/C(C)=C/c4ccccc4)CC3)c2=O)c1 [1-25]
63.1	398	39.8	–	–	–	C/C(=C\c1ccccc1)CN1CCC(Nc2nccn(Cc3ccc4ccccc4c3)c2=O)CC1 [5-35]
–	–	–	6.5	6.1	7.7	C/C(=C\c1ccccc1)CN1CCC(Nc2nccn(-c3ccc(CNC(=O)OC(C)(C)C)cc3)c2=O)CC1 [1-91]
25.1	398	7.94	–	–	–	C/C(=C\c1ccccc1)CN1CCC(Nc2nccn(-c3ccc(-c4ccccc4)cc3)c2=O)CC1 [5-30]
20	501	31.6	–	–	–	COc1ccc(Cn2ccnc(NC3CCN(C/C(C)=C/c4ccccc4)CC3)c2=O)cc1 [3-11]
39.8	200	3.16	–	–	–	C/C(=C\c1ccccc1)CN1CCC(Nc2nccn(-c3ccc(C(=O)N(CCN(C)C)Cc4ccccc4)cc3)c2=O)CC1 [1-112]
5.01	50.1	7.94	–	–	–	COc1ccc(-n2ccnc(NC3CCN(C/C(C)=C/c4ccccc4)CC3)c2=O)cc1 [3-9]
25.1	–	5.01	–	–	–	C/C(=C\c1ccccc1)CN1CCC(Nc2nccn(-c3ccccn3)c2=O)CC1 [6-9]
39.8	316	–	–	–	–	C/C(=C\c1ccccc1)CN1CCC(Nc2nccn(CCCNCc3ccccc3)c2=O)CC1 [1-46]
25.1	501	–	–	–	–	C/C(=C\c1ccccc1)CN1CCC(Nc2nccn(CCCNCc3ccccc3)c2=O)CC1 [1-47]
